Columns and labels:
Type in all cases: functional
[1] = Antiinflammatory activity against in C57BL/6 mouse BMDC assessed as inhibition of LPS-stimulated IL6 production compound pre-incubated for 1 hr before LPS challenge by ELISA
[2] = Antiinflammatory activity against in C57BL/6 mouse BMDC assessed as inhibition of LPS-stimulated IL12 production compound pre-incubated for 1 hr before LPS challenge by ELISA
[3] = Antiinflammatory activity against in C57BL/6 mouse BMDC assessed as inhibition of LPS-stimulated TNFalpha production compound pre-incubated for 1 hr before LPS challenge by ELISA

| IC50 [1] | IC50 [2] | IC50 [3] | Compound |
| --- | --- | --- | --- |
| > 100 µM | > 100 µM | > 100 µM | C=C(C)[C@H]1CCC2=C[C@@H](C[C@@]3(C)CC(=O)[C@H](CC(=O)C1)O3)OC2=O |
| > 100 µM | > 100 µM | > 100 µM | C=C(C)[C@@H]1CC(=O)CC2=C(C1)[C@@H]1C(=O)O[C@@H]3CC(C)=C(C2=O)[C@H]13 [YONAROLIDE] |
| 13.1 µM | 5.3 µM | > 100 µM | C=C(C)[C@@H]1CC(=O)C[C@@H]2O[C@](C)(CC2=O)C[C@@H]2C=C(C(=O)O2)[C@H](OC)C1 |
| > 100 µM | > 100 µM | > 100 µM | C=C(C)[C@@H]1CC(=O)CC2=C(C1)[C@]1(O)C(=O)O[C@@H]3C[C@](C)(O)[C@H](C2=O)[C@@H]31 |
| > 100 µM | > 100 µM | > 100 µM | C=C(C)[C@H]1C/C=C(\C(=O)OC)CC(=O)C[C@@]2(C)CC(=O)[C@@H](CC(=O)C1)O2 [NORCEMBRENE 5] |

| Compound | IC50 [1] | IC50 [2] | IC50 [3] |
| --- | --- | --- | --- |
| C=C(C)[C@@H]1CC(=O)CC2=C(C1)[C@@H]1C(=O)O[C@@H]3C[C@](C)(O)[C@H](C2=O)[C@H]13 [SCABROLIDE A] | 69.9 µM | 23.5 µM | > 100 µM |
| C=C(C)[C@@H]1CC(=O)[C@H]2[C@H](C1)[C@@H]1C(=O)O[C@@H]3C[C@@]4(C)O[C@H]2C(=O)[C@@H]4[C@H]13 [INELEGANOLIDE] | > 100 µM | > 100 µM | > 100 µM |
| C[S+]([O-])c1ccc(-c2nc(-c3ccc(F)cc3)c(-c3ccncc3)[nH]2)cc1 (centres undefined) [SB-203580] | 3.56 µM | 5.67 µM | 7.37 µM |

— ChEMBL document CHEMBL2331247, “Anti-inflammatory norditerpenoids from the soft coral Sinularia maxima” (Bioorg Med Chem Lett, 2013)
